Results on two compounds are retold here after publication PMC4666356 (2015).

The test system of assay [1] is mt6363 (DNA, G4) AGGGACGCGGGCGGGGGATATAGGGT
Description: CD melting at 265 nm. To be noted: 20 mM K+; 4 uM DNA, 8 uM compound.

In assay [2] the test system is mt1015 (DNA, G4) GGGCTTGATGTGGGGAGGGGTGTTTAAGGG
The experiment in a line: fluorescence lifetime. The conditions noted are these: qualitative; decay time ~3.3 ns.

In the case of `C[n+]1ccccc1/C=C/c1ccc2c(c1)c1cc(/C=C/c3cccc[n+]3C)ccc1n2CCCCCC[N+]1(C)CCCCC1`, the dTm in assay [1] is ~ 30 °C.

Turning to `C[n+]1ccccc1/C=C/c1ccc2c(c1)c1cc(/C=C/c3cccc[n+]3C)ccc1n2CCCCCCCCCCCC[N+]1(C)CCCCC1`, the binding result in assay [2] is on record as “yes”. Besides, the dTm in assay [1] is ~ 30 °C.
